Reference: patent US20160136110A1, “Method for Treating a Neurodegenerative Event” (MAKScientific, LLC, priority 2012, published 2016)

What was measured:
[1] = biological target: T1, rat and/or human FAAH enzyme (UniProt P97612); assay: FAAH inhibition assay; type: biochemical; conditions: rat or human FAAH inhibition assay as in Rahn et al. (2011)
T1 sequence (P97612 1-579): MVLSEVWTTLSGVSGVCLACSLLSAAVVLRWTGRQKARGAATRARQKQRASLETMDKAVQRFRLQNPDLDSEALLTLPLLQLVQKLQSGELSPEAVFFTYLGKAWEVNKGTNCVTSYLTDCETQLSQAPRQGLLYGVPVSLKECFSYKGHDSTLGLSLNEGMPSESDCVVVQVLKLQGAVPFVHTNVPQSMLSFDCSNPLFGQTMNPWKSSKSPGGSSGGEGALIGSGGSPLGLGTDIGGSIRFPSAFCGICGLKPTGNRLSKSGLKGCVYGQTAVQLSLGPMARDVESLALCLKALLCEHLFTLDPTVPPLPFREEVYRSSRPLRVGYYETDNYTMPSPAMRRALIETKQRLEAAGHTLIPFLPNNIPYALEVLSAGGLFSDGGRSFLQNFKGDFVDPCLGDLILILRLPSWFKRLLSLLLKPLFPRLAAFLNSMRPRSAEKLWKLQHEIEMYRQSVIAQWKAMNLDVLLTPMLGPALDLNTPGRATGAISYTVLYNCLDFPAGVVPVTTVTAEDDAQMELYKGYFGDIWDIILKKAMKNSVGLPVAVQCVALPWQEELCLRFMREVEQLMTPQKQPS
Text: Biochem and Behavior 98: 493. […] Particular FAAH inhibitor compounds for use with the invention include those disclosed in the following references: Deng, H (2010) Expert Opin. Drug Discovery 5(10): 961-993 and Blankman (2013) Pharmacol Rev 65:849-871, Seierstad (2008) J. Med. Chem., 51 (23), pp 7327-7343, Ahn (2009) Expert Opin. Drug Discov. 4(7):763-784 and references cited therein.

GDNF = GDNF ELISA of hippocampus after kainic acid injection; type: in vivo, rat; conditions: young rats (PND 22), kainic acid i.p. followed by 8 mg/kg i.p., 24 h; vs vehicle, p<0.02; FIG. 1A
Description: (§1) Young rats (PND 22) were injected i.p. with kainic acid (KA), followed immediately by vehicle (veh) or the FAAH inhibitor, Compound 1 (8 mg/kg, i.p.). After 24 h, hippocampus was rapidly dissected, and the homogenates were centrifuged to obtain supernatant for ELISA measures of GDNF) and BDNF. Standard curves were used to convert measures to pg cytokine per mg supernatant protein (±SEM). Unpaired t-tests: GDNF, *p<0.02; BDNF, ***p<0.001.

BDNF = BDNF ELISA of hippocampus after kainic acid injection; type: in vivo, rat; conditions: young rats (PND 22), kainic acid i.p. followed by 8 mg/kg i.p., 24 h; vs vehicle, p<0.001; FIG. 1B
Description: as §1

- IC50 [1]: 42 nM
Structure (SMILES): O=C(CCCOc1ccc(OCc2ccccc2)cc1)C(F)(F)F [Compound 1, 5-(4-(benzyloxy)phenoxy)-1,1,1-trifluoropentan-2-one]
- GDNF levels in hippocampus (ELISA) (GDNF): enhances GDNF levels
- BDNF levels in hippocampus (ELISA) (BDNF): protects against excitotoxin-induced reduction in BDNF
